Results: patent publication US5424442A, “Water-soluble methine compounds useful in photographic silver halide emulsion containing the same” (Fuji Photo Film Co., Ltd., priority 1990, dated 1995)
Values joined by “and” are separate entries in the source; they are usually repeats but may differ in a detail not shown here. Identical values can stand only once. Like-named read-outs stand apart in the source and are kept apart here.

What was measured:
[1] = Solubility in solvents (dissolution in incubator, filtration through microfilter, visible absorption); assay type: physicochemical; conditions: for Solubility in MeOH / Solubility in Water / Solubility in H2O: 720 min
Excerpt: The solubility of some of the compounds within formula (I) was accurately measured.
The measurement of solubility was made in the following manner.

[2] = Spectral sensitization of photographic silver halide emulsion; parameters: Yellow filter sensitivity (SY) / Red filter sensitivity (SR): scale not given here; conditions: for Maximum Sensitization: spectrogram, tungsten light source of 2666° K.; for Yellow filter sensitivity (SY): yellow filter SC-50, 5 seconds exposure; for Yellow filter sensitivity (SY) / Red filter sensitivity (SR): standard point Fog+0.2; for Red filter sensitivity (SR): red filter SC-60, 5 seconds exposure
Experimental: A silver halide emulsion comprising pure silver bromide and having a cubic crystal form (the area ratio of the plane to the entire surface area of grain being 92%) was prepared and subjected to a sulfur sensitization treatment. The average diameter of silver halide grains contained in the emulsion was 0.68 μm, and 0.74 mol of silver halide per kg of emulsion was contained in the emulsion. One kg of the emulsion was weighed in each of pots. An aqueous solution of each of the compounds of formula (I) indicated in Tables 4 and 5 was added to the pot, and the mixture was mixed with stirring at 40° C. For the purpose of comparison, comparative compounds 1 and 2 wherein counter ion was iodide were dispersed in water and added to respective pots.
Further, 4-hydroxy-6-methyl-1,3,3a,7-tetraazaindene in an amount of 0.1 g/kg of emulsion, sodium salt of 2,4-dichloro-6-hydroxy-1,3,5-triazine in an amount of 0.1 g/kg of emulsion and sodium dodecylbenzenesulfonate in an amount of 0.1 g/kg of emulsion in order were added thereto. The emulsion was then coated on a polyethylene terephthalate film to obtain a photographic material.
Each of these samples was exposed through an optical wedge for 5 seconds by using a yellow filter (SC-50, a product of Fuji Photo Film Co., Ltd.) or a red filter (SC-60, a product of Fuji Photo Film Co., Ltd.) and tungsten light (5400° K.).
A spectrogram was obtained by using a grating spectrograph having a tungsten light source of 2666° K., and the maximum sensitization was measured.
After exposure, the samples were developed at 20° C for 4 minutes by using the following developing solution. The density of each of the developed films was measured by using a densitometer (manufactured by Fuji Photo Film Co., Ltd. Spectral sensitivity, that is, yellow filter sensitivity (SY) or red filter sensitivity (SR), sensitivity (SB) in the sensitive region inherent in silver halide, and fog were determined. Sensitivity was determined when the standard point of optical density was referred to as (Fog+0.2). Composition of Developing Solution […]
Two volumes of water were added thereto to obtain a working solution when used.

[3] = MeOH, 37° C., 12 hours, Table 2
[4] = water, Table 3, read-out: Solubility in Water
[5] = MeOH, 37° C., 12 hours, Table 1
[6] = water, H2O, 37° C., 12 hours, Table 2, read-out: Solubility in H2O

## CCn1c(=Cc2oc3c4ccccc4ccc3[n+]2CC)sc(=C2Sc3ccccc3N2C)c1=O [drawing 128, reference compound]
[1]; [3]
  Solubility in MeOH: 150 µg/mL

## CN1C(=CC=c2sc(=Cc3sc4ccccc4[n+]3C)n(C)c2=O)Sc2ccccc21 [Compound 7]
[1]; water, Table 3
  Solubility in Water: 6200 µg/mL

## CN1C(=c2sc(=Cc3cc[n+](C)cc3)n(C)c2=O)Sc2ccccc21 [Compound 145]
[1]; [4]
  solubility at 12 h: 8800 µg/mL

## CCN1C(C)=CSC1=CC=c1sc(=Cc2sc3ccccc3[n+]2CC)n(CC)c1=O [Compound 53]
[1]; H2O, 37° C., 12 hours
  Solubility in H2O: > 37 mM
[1]; H2O, 37° C., 12 hours, Table 1
  Solubility in H2O: > 19000 µg/mL
[1]; MeOH, 37° C., 12 hours
  Solubility in MeOH: > 33 mM
[1]; [5]
  Solubility in MeOH: > 17000 µg/mL

## CCn1c(=Cc2sc3cc(C)c(C)cc3[n+]2CC)sc(=C2Sc3ccccc3N2C)c1=O [drawing 127, reference compound]
[1]; [3]
  Solubility in MeOH: 100 µg/mL

## CCN1C(=CC=c2sc(=Cc3sc(-c4ccccc4)c(-c4ccccc4)[n+]3CC)n(CC)c2=O)Sc2ccc3ccccc3c21 [Compound 89]
[2]; Table 4
  Maximum Sensitization: 640 nm
  Yellow filter sensitivity (SY): 705

## CC[n+]1c(C=c2sc(=CC=C3C=CN(C)C=C3)c(=O)n2C)sc2ccccc21 [Compound 98]
[1]; [4]
  solubility at 12 h: 6800 µg/mL

## CCn1c(=Cc2oc3c4ccccc4ccc3[n+]2CC)sc(=C2Sc3ccccc3N2C)c1=O [Compound 134]
[2]; Table 4
  Maximum Sensitization: 520 nm
  Yellow filter sensitivity (SY): 1350
[1]; [3]
  Solubility in MeOH: > 10000 µg/mL
[1]; [6]
  solubility at 12 h: 6900 µg/mL

## C=CCN1C=CC(=CC=c2sc(=Cc3sc4c5ccccc5ccc4[n+]3CC)n(CC=C)c2=O)c2ccccc21 [Compound 100]
[2]; Table 5
  Red filter sensitivity (SR): 1685
  Maximum Sensitization: 715 nm

## CCN1C(=CC=c2sc(=Cc3sc4c5ccccc5ccc4[n+]3CC)n(CC)c2=O)Sc2ccc3ccccc3c21 [Compound E, reference compound]
[1]; MeOH, 37° C., 12 hours
  Solubility in MeOH: 0.03 mM
[1]; [5]
  Solubility in MeOH: 30 µg/mL

## CCn1c(=Cc2oc3ccc(-c4ccccc4)cc3[n+]2CC)sc(=C2Sc3ccccc3N2C)c1=O [Compound 133]
[2]; Table 4
  Maximum Sensitization: 520 nm
  Yellow filter sensitivity (SY): 1620

## CCn1c(=C2CCC[n+]3c2sc2ccccc23)sc(=C2Sc3ccccc3N2C)c1=O [Compound 156]
[1]; [4]
  solubility at 12 h: 3700 µg/mL

## CCn1c(=Cc2oc3ccccc3[n+]2CC)sc(=C2Sc3ccccc3N2C)c1=O [Compound 128]
[1]; H2O, 37° C., 12 hours, Table 2
  Solubility in H2O: > 10000 µg/mL
[1]; [3]
  Solubility in MeOH: > 10000 µg/mL

## CCN1C(=CC=c2sc(=CC3=CC(=Cc4sc5cc(C)c(C)cc5[n+]4CC)Oc4ccccc43)n(CC)c2=O)Sc2ccccc21 [Compound 153]
[1]; [4]
  solubility at 12 h: 1400 µg/mL

## CCCn1c(=Cc2oc3cc(C)c(C)cc3[n+]2CC)sc(=CC=C2C=CN(CC)c3ccccc32)c1=O [Compound 101]
[2]; Table 5
  Red filter sensitivity (SR): 2270
  Maximum Sensitization: 695 nm

## CCn1c(=Cc2sc3ccccc3[n+]2CC)sc(=C2C=Cc3ccccc3N2C)c1=O [Compound 147]
[1]; [4]
  solubility at 12 h: 8100 µg/mL

## CCN1C(=CC=c2sc(=Cc3sc4c5ccccc5ccc4[n+]3C)n(CC)c2=O)Sc2ccc3ccccc3c21 [Compound 33]
[1]; water, Table 3
  Solubility in Water: 5300 µg/mL

## CCN1C(=CC=c2sc(=Cc3sc4c5ccccc5ccc4[n+]3C)n(CC)c2=O)Sc2ccc3ccccc3c21 [Compound 35]
[1]; water, Table 3
  Solubility in Water: > 10000 µg/mL

## CCn1c(=CC2=CC(=Cc3sc4ccccc4[n+]3CC)CC(C)(C)C2)sc(=C2Sc3ccccc3N2C)c1=O [Compound 148]
[1]; [4]
  solubility at 12 h: 3200 µg/mL

## CCn1c(=Cc2sc(-c3ccccc3)c(-c3ccccc3)[n+]2CC)sc(=CC=C2N(C)c3ccccc3C2(C)C)c1=O [Compound 91]
[2]; Table 4
  Maximum Sensitization: 600 nm
  Yellow filter sensitivity (SY): 1730

## CCN1C(=CC=c2sc(=Cc3oc4c5ccccc5ccc4[n+]3CC)n(CC)c2=O)Sc2c1ccc1ccccc21 [Compound 86]
[2]; Table 4
  Maximum Sensitization: 630 nm
  Yellow filter sensitivity (SY): 890

## CCn1c(=Cc2sc3c4ccccc4ccc3[n+]2CC)sc(=CC=C2SCCN2C)c1=O [Compound 45]
[1]; [4]
  solubility at 12 h: > 10000 µg/mL

## CCN1C(C)=CSC1=CC=c1sc(=Cc2sc3ccccc3[n+]2CC)n(CC)c1=O [Compound A, reference compound]
[1]; H2O, 37° C., 12 hours
  Solubility in H2O: 0.17 mM
[1]; H2O, 37° C., 12 hours, Table 1
  Solubility in H2O: 100 µg/mL
[1]; MeOH, 37° C., 12 hours
  Solubility in MeOH: 1.11 mM
[1]; [5]
  Solubility in MeOH: 650 µg/mL
[1]; dmso, organic solvent or mixture, DMSO, 37° C., 12 hours, read-out: Solubility in DMSO
  solubility at 12 h: 20000 µM and 11700 µg/mL

## CCN1C(=CC=c2sc(=Cc3sc4c5ccccc5ccc4[n+]3C)n(CC)c2=O)Sc2ccc3ccccc3c21 [Compound 36]
[1]; water, Table 3
  Solubility in Water: 4800 µg/mL

## CCCn1c(=Cc2sc3ccccc3[n+]2CC)sc(=CC=C2C=Cc3ccccc3N2CC)c1=O [Compound 96]
[2]; Table 5
  Red filter sensitivity (SR): 3600
  Maximum Sensitization: 660 nm

## CN1C(=CC=c2sc(=Cc3sc4ccccc4[n+]3C)n(C)c2=O)Sc2ccccc21 [Compound 10]
[1]; water, Table 3
  Solubility in Water: > 10000 µg/mL

## CCn1c(=CC2=CC(=Cc3sc4cc(C)c(C)cc4[n+]3CC)CC(C)(C)C2)sc(=C2Sc3ccccc3N2C)c1=O [Compound 151]
[2]; Table 5
  Red filter sensitivity (SR): 1535
  Maximum Sensitization: 750 nm

## CCn1c(=CC2=[N+](CC)CCS2)sc(=C2Sc3ccccc3N2C)c1=O [Compound 142]
[2]; Table 4
  Maximum Sensitization: 495 nm
  Yellow filter sensitivity (SY): 300

## CCn1c(=Cc2sc3ccccc3[n+]2C)sc(=C2Oc3ccc4ccccc4c3N2C)c1=O [Compound 127]
[1]; [4]
  solubility at 12 h: 5700 µg/mL

## CCN1C(=CC=c2sc(=Cc3sc(-c4ccccc4)c(-c4ccccc4)[n+]3CC)n(CC)c2=O)Oc2ccccc21 [Compound 88]
[2]; Table 4
  Maximum Sensitization: 565 nm
  Yellow filter sensitivity (SY): 2085

## CCn1c(=Cc2oc3ccccc3[n+]2CC)sc(=C2Sc3ccccc3N2C)c1=O [Compound D, reference compound]
[1]; H2O, 37° C., 12 hours, Table 2
  Solubility in H2O: 200 µg/mL
[1]; [3]
  Solubility in MeOH: 2000 µg/mL

## CCN1C(=CC=c2sc(=Cc3sc4ccccc4[n+]3CC)n(CC)c2=O)Sc2ccc(Cl)cc21 [Compound 3]
[1]; [4]
  solubility at 12 h: 7200 µg/mL

## CN1C(=CC=c2sc(=Cc3sc4ccccc4[n+]3C)n(C)c2=O)Sc2ccccc21 [Compound 9]
[1]; water, Table 3
  Solubility in Water: 3800 µg/mL

## CCN1C(=CC=c2sc(=Cc3sc4c5ccccc5ccc4[n+]3C)n(CC)c2=O)Sc2ccc3ccccc3c21 [Compound 34]
[1]; water, Table 3
  Solubility in Water: 7100 µg/mL

## CCN1C(=CC=c2sc(=Cc3sc4c5ccccc5ccc4[n+]3CC)n(CC)c2=O)Sc2ccc3ccccc3c21 [Compound 25]
[1]; MeOH, 37° C., 12 hours
  Solubility in MeOH: > 25 mM
[1]; [5]
  Solubility in MeOH: > 16000 µg/mL
[1]; water, H2O, 37° C., 12 hours, Table 1, read-out: Solubility in H2O
  solubility at 12 h: 6560 µg/mL
[1]; water, H2O, 37° C., 12 hours, read-out: Solubility in H2O
  solubility at 12 h: 10.1 mM

## CCN1C(=CC=c2sc(=Cc3cc[n+](CC)c4ccccc34)n(CC)c2=O)C=Cc2ccccc21 [reference compound]
[1]; methanol, organic solvent or mixture, MeOH, 37° C., 12 hours, Table 2, read-out: Solubility in MeOH
  solubility at 12 h: 2800 µg/mL
[1]; [6]
  solubility at 12 h: 300 µg/mL

## CCN1C(=CC=c2sc(=Cc3cc[n+](C)c4ccccc34)n(C)c2=O)N(CC)c2ccccc21 [Compound 104]
[1]; [4]
  solubility at 12 h: 4100 µg/mL

## CCn1c(=Cc2sc3cc(C)c(C)cc3[n+]2CC)sc(=C2Sc3ccc(OC)cc3N2C)c1=O [Compound 111]
[2]; Table 4
  Maximum Sensitization: 540 nm
  Yellow filter sensitivity (SY): 2085

## CCn1c(=Cc2sc3cc(C)c(C)cc3[n+]2CC)sc(=C2Sc3ccccc3N2C)c1=O [Compound 110]
[1]; [3]
  Solubility in MeOH: > 10000 µg/mL
[1]; [6]
  solubility at 12 h: 1700 µg/mL
